Source: patent US10098852B2 (LAUNX BIOMEDICAL CO., LTD., priority 2014, dated 2018)
Read-outs that look alike come from different tables or passages of the source.

Experiments:
Format in all cases: cell-based
[1] = test system: A549 (lung adenocarcinoma); assay: Cell viability analysis (WST-1), lung cancer cell line A549; conditions: Homo sapiens
[2] = Cell viability analysis (WST-1), normal kidney cell line HEK293; conditions: human, HEK293 normal kidney cells
Description: (§1) The cell numbers were counted and reseed as 2×10^6 in cell culture plate/flask. Then, the culture medium was added to a volume of 10 ml, and the cells were cultured for 2-3 days. Then, the cells were suspended for loading into 96-well plates. The cell number was 3000/well and the volume of the culture medium was 100 μl each well.
(§2) Removing the original culture medium from 96-well plate. Then add 100 μl of commercially drug at a concentration of 10 μM per well. After 72 hours, add the diluted WST-1 reagent to the well with 100 μl/well, and the diluted WST-1 reagent was acquired from the dilution of 9:1 medium and WST-1 stock reagent. Finally, the total volume of each well was 200 μl/well. Culture the 96-well plate at 37° C. for 30 to 90 minutes. Detecting and calculate the survival rate of each cancer cells with an ELISA reader at OD450 nm.

[3] = test system: LoVo (Colorectal Adenocarcinoma); assay: Cell viability analysis (WST-1), colorectal cancer cell line LoVo; conditions: Homo sapiens
Description: as §1, §2

bladder cancer cell = assay: Summary of the effect on bladder cancer cell (TSGH, T24); conditions: bladder cancer cell (mean of TSGH and T24 averages), 72 hours, read-out: Inhibitory effect
Description: as §2

[4] = test system: BCC (basal cell carcinoma); assay: Cell viability analysis (WST-1), skin cancer cell line BCC
Description: as §1, §2

hepatic cancer cell = assay: Summary of the effect on hepatic cancer cell (HepG2, Hep3B); conditions: hepatic cancer cell (mean of HepG2 and Hep3B averages), 72 hours, read-out: Inhibitory effect
Description: as §2

gastric cancer cell = assay: Summary of the effect on gastric cancer cell (AGS, MKN-45); conditions: Homo sapiens, gastric cancer cell (mean of AGS and MKN-45 averages), 72 hours, read-out: Inhibitory effect
Description: as §2

[5] = test system: BxPC-3 (pancreatic cancer cell line); assay: Cell viability analysis (WST-1), pancreatic cancer cell line BxPC-3; conditions: Homo sapiens
Description: as §1, §2

[6] = test system: HCT116-wt (colorectal carcinoma); assay: Cell viability analysis (WST-1), colorectal cancer cell line HCT116-wt
Description: as §1, §2

[7] = test system: SAS (Tongue squamous cell carcinoma); assay: Cell viability analysis (WST-1), tongue cancer cell line SAS
Description: as §1, §2

[8] = test system: AsPC-1 (pancreatic cancer cell line); assay: Cell viability analysis (WST-1), pancreatic cancer cell line AsPC-1; conditions: Homo sapiens
Description: as §1, §2

[9] = test system: TOV-21G (ovarian cancer cell line); assay: Cell viability analysis (WST-1), ovarian cancer cell line TOV-21G; conditions: Homo sapiens, TOV21G
Description: as §1, §2

[10] = test system: A375 (amelanotic melanoma); assay: Cell viability analysis (WST-1), skin cancer cell line A375; conditions: Homo sapiens
Description: as §1, §2

[11] = test system: 786-O (Renal adenocarcinoma); assay: Cell viability analysis (WST-1), renal cancer cell line 786-O; conditions: Homo sapiens
Description: as §1, §2

[12] = test system: HeLa (Cervix Adenocarcinoma); assay: Cell viability analysis (WST-1), cervical cancer cell line HeLa; conditions: Homo sapiens
Description: as §1, §2

[13] = test system: LNCap (prostate cancer cell line); assay: Cell viability analysis (WST-1), prostate cancer cell line LNCap; conditions: Homo sapiens
Description: as §1, §2

skin cancer cell = assay: Summary of the effect on skin cancer cell (A375, BCC); conditions: Homo sapiens, A-375, skin cancer cell (mean of A375 and BCC averages), 72 hours, read-out: Inhibitory effect
Description: as §2

ovarian cancer cell = assay: Summary of the effect on ovarian cancer cell (NIH-OVCAR-3, TOV-21G); conditions: ovarian cancer cell (mean of NIH-OVCAR-3 and TOV-21G averages), 72 hours, read-out: Inhibitory effect
Description: as §2

[14] = 72 h, average of 4 tests, read-out: inhibition effect (survival rate of cells), average
[15] = 72 hours, test 0602-30 min, read-out: inhibition effect (survival rate of cells)
[16] = 72 hours, test 0605-10 min, read-out: inhibition effect (survival rate of cells)
[17] = 72 hours, test 0607-10 min, read-out: inhibition effect (survival rate of cells)
[18] = 72 hours, test 0609-10 min, read-out: inhibition effect (survival rate of cells)

Oc1ccc(OCc2ccccc2)cc1 [Monobenzone]
viability at 10 µM ([1]; A549, 72 h, A549, 10 μM, average of 4 tests, read-out: inhibition effect (survival rate of cells), Average): 93.4%
viability at 10 µM ([1]; A549, A549, 10 μM, 72 hours, test 0524-10 min, read-out: inhibition effect (survival rate of cells)): 80.8%
viability at 10 µM ([1]; A549, A549, 10 μM, 72 hours, test 0526-10 min, read-out: inhibition effect (survival rate of cells)): 111%
viability at 10 µM ([1]; A549, A549, 10 μM, 72 hours, test 0529-10 min, read-out: inhibition effect (survival rate of cells)): 80.8%
viability at 72 h, 10 µM ([2]; average of 4 tests, read-out: inhibition effect (survival rate of cells), average): 93%
viability at 72 h, 10 µM ([2]; test 0602-30 min, read-out: inhibition effect (survival rate of cells)): 82.7%
viability at 72 h, 10 µM ([2]; test 0605-30 min, read-out: inhibition effect (survival rate of cells)): 99.4%
viability at 72 h, 10 µM ([2]; test 0607-30 min, read-out: inhibition effect (survival rate of cells)): 97.9%
viability at 72 h, 10 µM ([2]; test 0609-30 min, read-out: inhibition effect (survival rate of cells)): 91.8%
viability at 10 µM [3, 14]: 83%
viability at 10 µM ([3]; 72 hours, test 0616-10 min, read-out: inhibition effect (survival rate of cells)): 82.3%
viability at 10 µM ([3]; 72 hours, test 0619-10 min, read-out: inhibition effect (survival rate of cells)): 73.9%
viability at 10 µM ([3]; 72 hours, test 0621-10 min, read-out: inhibition effect (survival rate of cells)): 94.7%
viability at 10 µM ([3]; 72 hours, test 0623-10 min, read-out: inhibition effect (survival rate of cells)): 81.3%
viability at 10 µM (bladder cancer cell): 85.8%
viability at 10 µM ([4]; 72 h, average of 4 tests, read-out: inhibition effect (survival rate of cells), Average): 50.1%
viability at 10 µM [4, 15]: 48.2%
viability at 10 µM [4, 16]: 59.8%
viability at 10 µM [4, 17]: 38.6%
viability at 10 µM [4, 18]: 53.8%
viability at 10 µM (hepatic cancer cell): 95.4%
viability at 10 µM (gastric cancer cell): 82.8%
viability at 10 µM ([5]; BXPC-3, 72 h, BxPC-3, 10 μM, average of 4 tests, read-out: inhibition effect (survival rate of cells), average): 78.6%
viability at 10 µM ([5]; BXPC-3, BxPC-3, 10 μM, 72 hours, test 3-4-30 min, read-out: inhibition effect (survival rate of cells)): 86.3%
viability at 10 µM ([5]; BXPC-3, BxPC-3, 10 μM, 72 hours, test 3-7-3-30 min, read-out: inhibition effect (survival rate of cells)): 57.4%
viability at 10 µM ([5]; BXPC-3, BxPC-3, 10 μM, 72 hours, test 3-7-4-30 min, read-out: inhibition effect (survival rate of cells)): 100%
viability at 10 µM ([5]; BXPC-3, BxPC-3, 10 μM, 72 hours, test 3-7-7-30 min, read-out: inhibition effect (survival rate of cells)): 70.7%
viability at 10 µM [6, 14]: 95%
viability at 10 µM [6, 15]: 91.1%
viability at 10 µM [6, 16]: 104%
viability at 10 µM [6, 17]: 99.9%
viability at 10 µM [6, 18]: 85.3%
viability at 10 µM ([7]; 72 h, SAS, average of 4 tests, read-out: inhibition effect (survival rate of cells), average): 90.3%
viability at 10 µM ([7]; 72 h, tongue cancer cell (SAS average), read-out: Inhibitory effect): 90.3%
viability at 10 µM ([7]; SAS, 72 hours, test 6-26-10 min, read-out: inhibition effect (survival rate of cells)): 97.3%
viability at 10 µM ([7]; SAS, 72 hours, test 6-28-10 min, read-out: inhibition effect (survival rate of cells)): 59.4%
viability at 10 µM ([7]; SAS, 72 hours, test 6-30-10 min, read-out: inhibition effect (survival rate of cells)): 89.6%
viability at 10 µM ([7]; SAS, 72 hours, test 7-3-10 min, read-out: inhibition effect (survival rate of cells)): 115%
viability at 10 µM ([8]; ASPC1, 72 h, AsPC-1, 10 μM, average of 4 tests, read-out: inhibition effect (survival rate of cells), average): 95.1%
viability at 10 µM ([8]; ASPC1, AsPC-1, 10 μM, 72 hours, test 1-4-30 min, read-out: inhibition effect (survival rate of cells)): 93.7%
viability at 10 µM ([8]; ASPC1, AsPC-1, 10 μM, 72 hours, test 1-7-3-30 min, read-out: inhibition effect (survival rate of cells)): 88.7%
viability at 10 µM ([8]; ASPC1, AsPC-1, 10 μM, 72 hours, test 1-7-4-30 min, read-out: inhibition effect (survival rate of cells)): 116%
viability at 10 µM ([8]; ASPC1, AsPC-1, 10 μM, 72 hours, test 1-7-7-30 min, read-out: inhibition effect (survival rate of cells)): 81.7%
viability at 10 µM [9, 14]: 78.4%
viability at 10 µM ([9]; 72 hours, test 7-3-30 min, read-out: inhibition effect (survival rate of cells)): 93.9%
viability at 10 µM ([9]; 72 hours, test 7-4-30 min, read-out: inhibition effect (survival rate of cells)): 78.4%
viability at 10 µM ([9]; 72 hours, test 7-7-30 min, read-out: inhibition effect (survival rate of cells)): 69.6%
viability at 10 µM ([9]; 72 hours, test −4-30 min, read-out: inhibition effect (survival rate of cells)): 71.6%
viability at 10 µM ([10]; A-375, 72 h, A375, 10 μM, average of 4 tests, read-out: inhibition effect (survival rate of cells), Average): 76.4%
viability at 10 µM ([10]; A-375, A375, 10 μM, 72 hours, test 0602-30 min, read-out: inhibition effect (survival rate of cells)): 56.7%
viability at 10 µM ([10]; A-375, A375, 10 μM, 72 hours, test 0605-10 min, read-out: inhibition effect (survival rate of cells)): 64.8%
viability at 10 µM ([10]; A-375, A375, 10 μM, 72 hours, test 0607-10 min, read-out: inhibition effect (survival rate of cells)): 77.3%
viability at 10 µM ([10]; A-375, A375, 10 μM, 72 hours, test 0609-10 min, read-out: inhibition effect (survival rate of cells)): 107%
viability at 10 µM ([11]; 786-0, 786-O, 72 hours, test 0524-10 min, read-out: inhibition effect (survival rate of cells)): 39.8%
viability at 10 µM ([11]; 786-0, 786-O, 72 hours, test 0526-10 min, read-out: inhibition effect (survival rate of cells)): 32.4%
viability at 10 µM ([11]; 786-0, 786-O, 72 hours, test 0529-10 min, read-out: inhibition effect (survival rate of cells)): 21.2%
viability at 10 µM ([11]; 786-0, 786-O, 72 hours, test 0531-10 min, read-out: inhibition effect (survival rate of cells)): 23.4%
viability at 10 µM ([11]; 786-0, 72 h, 786-O, average of 4 tests, read-out: inhibition effect (survival rate of cells), average): 29.2%
viability at 10 µM ([11]; 786-0, 72 h, Kidney cancer cell (786-O average), read-out: Inhibitory effect): 29.2%
viability at 10 µM [12, 14]: 80.1%
viability at 10 µM ([12]; 72 hours, test 0524-10 min, read-out: inhibition effect (survival rate of cells)): 82.8%
viability at 10 µM ([12]; 72 hours, test 0526-10 min, read-out: inhibition effect (survival rate of cells)): 72.8%
viability at 10 µM ([12]; 72 hours, test 0529-10 min, read-out: inhibition effect (survival rate of cells)): 82.7%
viability at 10 µM ([12]; 72 hours, test 0531-10 min, read-out: inhibition effect (survival rate of cells)): 81.9%
viability at 10 µM [13, 14]: 67.9%
viability at 10 µM ([13]; 72 hours, test LNCap-1-10 min, read-out: inhibition effect (survival rate of cells)): 65.5%
viability at 10 µM ([13]; 72 hours, test LNCap-2-20 min, read-out: inhibition effect (survival rate of cells)): 52.7%
viability at 10 µM ([13]; 72 hours, test LNCap-3-20 min, read-out: inhibition effect (survival rate of cells)): 81.6%
viability at 10 µM ([13]; 72 hours, test LNCap-4-20 min, read-out: inhibition effect (survival rate of cells)): 71.6%
viability at 10 µM (skin cancer cell): 63.2%
viability at 10 µM (ovarian cancer cell): 85%
